One assay concerns Fcγ1. The experiment in a line: Repeated FcγR reverse ELISA with SEQ ID NO:20 (Table 3). The class given is binding. A general note: An ELISA detects its analyte on a solid surface through an enzyme-linked reagent.
Assay [1] concerns Fc receptor (FcγI, FcγIIa/FcγIIb, and FcγIII). The experiment in a line: FcγR reverse ELISA, overall statements on FcR binding to PAP immune complexes. The procedure: (§1) Once the reverse ELISA protocol was established using the C1q assay, the assay was redesigned using FcγIIa, FcγIIb and FcγIII in place of C1q. Highly purified FcγIIa, FcγIIb and FcγIII (R&D Systems, Minneapolis, Minn.) were immunoadsorbed onto plastic microwells. After optimizing the FcγR reverse ELISA system, simple competitive inhibition experiments using polypeptides provided herein were conducted to investigate their ability to inhibit binding of immune complexes to purified FcγR.
(§2) Falcon microtiter plates were coated with 1:10 dilutions of highly purified FcγIIa, FcγIIb and FcγIII and incubated for 24 hours. The plates were washed and then blocked with 5×BSA blocking solution (Alpha Diagnostic International, San Antonio, Tex.) for 24 hours. PAP immune complexes were formed as described in Example 1. PAP (100 μl) were pre-incubated with 100 μl of peptide for one hour. PAP/peptide mixtures were added to the FcγR coated plates and incubated for one hour. After washing, plates were incubated with ABTS substrate (Quidel Corp.) for 15 minutes and read at 405 nm.
Experiments with SEQ ID NO:20 were repeated. Costar microtiter plates were coated with 1:10 dilutions of highly purified FcγIIa (His 131 allele aka […]), FcγIIb and FcγIIIb and incubated for 24 hours. […] After washing, plates were incubated with ABTS substrate for 15 minutes and read at 405 nm.

For the next assay, the system named is FcγIIIa. Briefly: FcγR reverse ELISA: inhibition of PAP immune complex binding (Table 2). The conditions noted are these: PAP/peptide mixture on FcγR coated plates; positive control 1.588.
Excerpt: (§3) For this reason, a “reverse ELISA” technique has been used to assess binding of the Fc region to ligands that bind to immune complexed IgG Fc. In a reverse ELISA, the enzyme (e.g., HRP) is not covalently conjugated to the Fc portion of the secondary antibody. Rather, a preformed immune complex of peroxidase-rabbit (or mouse) anti-peroxidase IgG (“PAP” complex) is used. […] In the reverse ELISA system, an Fc CH2-CH3 cleft binding ligand (e.g., purified human C1q) was bound to microwell plates. In the absence of competitor, PAP complexes bound to the immobilized ligand and the reaction between HRP and its substrate produces a signal. This signal was reduced by polypeptides and compounds that inhibited PAP binding to the immobilized ligand.
as §1, §2

The next assay relates to FcγIIa (R131 allele). The description is as above. The following applies: PAP/peptide mixture on FcγR coated plates; positive control 1.599.
Excerpt: as §3, §1, §2

The test system of the next assay is FcγIIb. The assay is described as above. The conditions noted are these: PAP/peptide mixture on FcγR coated plates; positive control 1.394.
Excerpt: as §3, §1, §2

The test system of a further assay is FCγIIIb (NA2). The experiment in a line: Repeated FcγR reverse ELISA with SEQ ID NO:20 (Table 3). The class given is binding. The procedure:
Experiments with SEQ ID NO:20 were repeated. Costar microtiter plates were coated with 1:10 dilutions of highly purified FcγIIa (His 131 allele aka […]), FcγIIb and FcγIIIb and incubated for 24 hours. The plates were washed and then blocked with 10 mg/ml BSA blocking solution for 24 hours. PAP immune complexes were formed as described in Example 2. PAP (100 μl) were pre-incubated with 100 μl of peptide for one hour. PAP/peptide mixtures were added to the FcγR coated plates and incubated for one hour. After washing, plates were incubated with ABTS substrate for 15 minutes and read at 405 nm.

For the substance “Ala-Pro-Pro-Asp-Cys-Ala-Trp-His-Leu-Gly-Glu-Leu-Val-Trp-Cys-Thr (APPDCAWHLGELVWCT) [SEQ ID NO:20]”, in the assay with Fcγ1 (repeat experiment, positive control 2.333), the “Fcγ1 (read at 405 nm)” value came out at 0.264. Further, in the assay on Fcγ1 (versus positive control), the “% inhibition of IC binding, Fcγ1” value amounted to 89%. Moreover, the “Overall inhibition of FcR binding to PAP (ranking in words)” value in assay [1] (summary of Table 2: FcγIIa, FcγIIb, FcγIIIa) is reported as “greatest overall inhibition of FcR binding to PAP”. In addition, the “Inhibition of Fc receptor binding to soluble PAP immune complexes” value in assay [1] (summary of Table 3) is on record as “inhibited binding of all three major classes of Fc receptor”. Also, the “OD405 FcγIIIa” value with FcγIIIa came out at 0.670. Further, in the assay with FcγIIa (R131 allele), the “OD405 FcγIIa (R131 allele)” value is reported as 0.509. Besides, in the assay on FcγIIb, the “OD405 FcγIIb” value came to 0.496. Further, the “FCγIIIb (NA2) (read at 405 nm)” value in the assay on FCγIIIb (NA2) (repeat experiment, positive control 3.060) came to 0.266. The “% inhibition of IC binding, FCγIIIb (NA2)” value in the assay with FCγIIIb (NA2) (versus positive control) is reported as 91%.
